Assay results taken from ChEMBL document CHEMBL3745675, “Design and optimization of selective azaindole amide M1 positive allosteric modulators” (Bioorg Med Chem Lett, 2016).

Experiments:
[1] = Tmax in Wistar Hann rat brain at 5 mg/kg, sc; type: ADME, organism-based
[2] = Ratio of unbound AUC in brain to plasma in C57BL/6j mouse at 10 mg/kg, sc after 2 hrs; type: ADME, organism-based; details: read-out: Ratio AUC
[3] = Ratio drug level in brain to plasma in C57BL/6j mouse at 10 mg/kg, sc after 2 hrs; type: ADME, organism-based; details: read-out: BPR
[4] = Ratio of unbound AUC in CSF to plasma in Wistar Hann rat at 5 mg/kg, sc after 2 hrs; type: ADME, organism-based; details: CSF and plasma, read-out: Ratio AUC
[5] = Drug concentration in Wistar Hann rat plasma at 5 mg/kg, sc after 1 hr; type: ADME, organism-based
[6] = Volume of distribution at steady state in Wistar Hann rat at 0.5 mg/kg, iv; type: ADME, organism-based; details: in vivo, read-out: Vdss
[7] = Ratio of unbound AUC in brain to plasma in Wistar Hann rat; type: ADME, organism-based; details: read-out: Ratio AUC
[8] = Oral bioavailability in Wistar Hann rat; type: ADME, organism-based; details: in vivo
[9] = system: Plasma; experiment: Fraction unbound in C57BL/6j mouse plasma at 10 mg/kg, sc after 1 hr; type: ADME, organism-based; details: in vivo
[10] = Cmax in Wistar Hann rat brain at 5 mg/kg, sc; type: ADME, organism-based; parameters: dose 5 mg/kg, route subcutaneous
[11] = AUC (0 to infinity) in Wistar Hann rat plasma at 5 mg/kg, sc; type: ADME, organism-based; parameters: dose 5 mg/kg, time infinity, route subcutaneous
[12] = system: Plasma; experiment: Fraction unbound in Wistar Hann rat plasma at 5 mg/kg, sc after 2 hrs; type: ADME, organism-based; details: in vivo
[13] = AUC (0 to tlast) in Wistar Hann rat CSF at 5 mg/kg, sc; type: ADME, organism-based, Cerebrospinal fluid
[14] = Ratio drug level in brain to plasma in C57BL/6j mouse at 10 mg/kg, sc after 1 hr; type: ADME, organism-based; details: read-out: BPR
[15] = AUC (0 to infinity) in Wistar Hann rat brain at 5 mg/kg, sc; type: ADME, organism-based; parameters: dose 5 mg/kg, route subcutaneous, time infinity
[16] = Ratio of unbound AUC in brain to plasma in C57BL/6j mouse; type: ADME, organism-based; details: read-out: Ratio AUC
[17] = Drug concentration in Wistar Hann rat CSF at 5 mg/kg, sc after 4 hrs; type: ADME, organism-based, Cerebrospinal fluid; details: read-out: Drug uptake
[18] = Drug concentration in Wistar Hann rat brain at 5 mg/kg, sc after 6 hrs; type: ADME, organism-based; details: read-out: Drug uptake
[19] = Ratio of drug level in CSF to plasma in Wistar Hann rat at 5 mg/kg, sc after 6 hrs; type: ADME, organism-based; details: CSF and plasma
[20] = Ratio of unbound AUC in brain to plasma in C57BL/6j mouse at 10 mg/kg, sc after 1 hr; type: ADME, organism-based; details: read-out: Ratio AUC
[21] = Drug concentration in Wistar Hann rat CSF at 5 mg/kg, sc after 6 hrs; type: ADME, organism-based, Cerebrospinal fluid; details: read-out: Drug uptake
[22] = Ratio of drug level in brain to plasma in Wistar Hann rat at 5 mg/kg, sc after 6 hrs; type: ADME, organism-based
[23] = AUC (0 to 24 hrs) in Wistar Hann rat at 0.5 mg/kg, iv; type: ADME, organism-based; parameters: dose 0.5 mg/kg, time < 24 hr, route intravenous; details: in vivo
[24] = Drug concentration in Wistar Hann rat CSF at 5 mg/kg, sc after 2 hrs; type: ADME, organism-based, Cerebrospinal fluid; details: read-out: Drug uptake
[25] = Cmax in Wistar Hann rat at 2 mg/kg, po; type: ADME, organism-based; parameters: dose 2 mg/kg, route oral; details: in vivo
[26] = Ratio of unbound AUC in brain to plasma in C57BL/6j mouse at 10 mg/kg, sc after 0.5 hrs; type: ADME, organism-based; details: read-out: Ratio AUC
[27] = Ratio drug level in brain to plasma in C57BL/6j mouse at […], sc after 1 hr; type: ADME, organism-based; details: read-out: BPR
[28] = system: Plasma; experiment: Fraction unbound in C57BL/6j mouse plasma at 10 mg/kg, sc after 2 hrs; type: ADME, organism-based; details: in vivo
[29] = Drug concentration in Wistar Hann rat brain at 5 mg/kg, sc after 2 hrs; type: ADME, organism-based; details: read-out: Drug uptake
[30] = Ratio of unbound AUC in brain to plasma in C57BL/6j mouse at […], sc after 1 hr; type: ADME, organism-based; details: read-out: Ratio AUC
[31] = Drug concentration in Wistar Hann rat plasma at 5 mg/kg, sc after 6 hrs; type: ADME, organism-based
[32] = system: Plasma; experiment: Fraction unbound in C57BL/6j mouse plasma at […], sc after 1 hr; type: ADME, organism-based; details: in vivo
[33] = Ratio of unbound AUC in brain to plasma in Wistar Hann rat at 5 mg/kg, sc after 4 hrs; type: ADME, organism-based; details: brain and plasma, read-out: Ratio AUC
[34] = Ratio of drug level in brain to plasma in Wistar Hann rat at 5 mg/kg, sc after 4 hrs; type: ADME, organism-based
[35] = Ratio of unbound AUC in brain to plasma in Wistar Hann rat at 5 mg/kg, sc after 6 hrs; type: ADME, organism-based; details: brain and plasma, read-out: Ratio AUC
[36] = Ratio of drug level in CSF to plasma in Wistar Hann rat at 5 mg/kg, sc after 2 hrs; type: ADME, organism-based; details: CSF and plasma

Q: For `Cn1ccc(-c2ccc(Cn3cc(C(=O)N[C@H]4CCOC[C@@H]4O)c4ncccc43)cc2)n1`, which Tmax [1] is on record?
A: 1 h

Q: And the Kp uu at 2 h [2]?
A: 0.16

Q: And the Kp at 2 h [3]?
A: 0.06

Q: And the Kp uu at 2 h [4]?
A: 0.29

Q: What about the concentration at 1 h [5] of the same compound?
A: 5030 nM

Q: And the Vd [6]?
A: 1.49 L/kg

Q: What about the Kp uu [7] of the same compound?
A: 0.15

Q: What about the bioavailability [8] of the same compound?
A: 69%

Q: And the “Cp(f)” value [9]?
A: 560 nM

Q: And the Cmax [10]?
A: 453 ng/mL

Q: And the AUC(0-inf) [11]?
A: 13400 ng·h/mL

Q: And the “Cp(f)” value [12]?
A: 502 nM

Q: What about the AUC(0-t) [13] of the same compound?
A: 240 ng·h/mL

Q: And the Kp at 1 h [14]?
A: 0.07

Q: And the AUC(0-inf) [15]?
A: 2680 ng·h/mL

Q: And the Kp uu [16]?
A: 0.2

Q: And the concentration at 4 h [17]?
A: 76.2 nM

Q: And the concentration at 6 h [18]?
A: 409 nM

Q: And the Kp at 6 h [19]?
A: 0.02

Q: And the Kp uu at 1 h [20]?
A: 0.18

Q: What about the concentration at 6 h [21] of the same compound?
A: 54.3 nM

Q: What about the Kp at 6 h [22] of the same compound?
A: 0.19

Q: And the AUC(0-t) at 24 h [23]?
A: 1660 ng·h/mL

Q: And the concentration at 2 h [24]?
A: 144 nM

Q: What about the Cmax [25] of the same compound?
A: 600 ng/mL

Q: And the Kp uu at 0.5 h [26]?
A: 0.34

Q: And the Kp at 1 h [27]?
A: 0.04

Q: What about the “Cp(f)” value [28] of the same compound?
A: 379 nM

Q: What about the concentration at 2 h [29] of the same compound?
A: 944 nM

Q: What about the Kp uu at 1 h [30] of the same compound?
A: 0.1

Q: What about the concentration at 6 h [31] of the same compound?
A: 2150 nM

Q: And the “Cp(f)” value [32]?
A: 302.2 nM

Q: And the Kp uu at 4 h [33]?
A: 0.16

Q: What about the Kp at 4 h [34] of the same compound?
A: 0.22

Q: What about the Kp uu at 6 h [35] of the same compound?
A: 0.14

Q: What about the Kp at 2 h [36] of the same compound?
A: 0.03
